In patent publication US8178506B2, “Oligomeric compounds and compositions for use in modulation of small non-coding RNAs” (Regulus Therapeutics Inc., priority 2003, dated 2012):
In the oligonucleotide strings, read from the 5' end, every base follows the letter of its sugar. An asterisk marks phosphorothioate; unmarked linkages are phosphodiester. Other units and linkages are bracketed, terminal groups are in braces. A string of capitals states the bases alone. e = 2'-O-(2-methoxyethyl) (MOE); [5mC] = 5-methylcytosine; d = 2'-deoxy (DNA)

Test system: IL-12 mRNA
Assay: IL-12 mRNA in LPS-activated primary murine macrophages
Type: cell-based, mouse
Details: for IL-12 mRNA expression, % UTC: LPS, average of 3 treatments; for IL-12 mRNA expression, −IFN % UTC: 300 nM oligomeric compound and LPS, no IFN-gamma pretreatment, single experiment; for IL-12 mRNA expression, −IFN % UTC / IL-12 mRNA expression, +IFN % UTC: normalized to LPS-treated cells without oligomeric compound; for IL-12 mRNA expression, +IFN % UTC: 300 nM oligomeric compound, stimulation with IFN-gamma and LPS, average of 2 experiments

129690 (antisense TTAGAATACGTCGCGTTATG; sugars from the 5' end e5 d10 e5, all phosphorothioate, methylation of C not given here) [compound 129690]
IL-12 mRNA expression, % UTC (75 nM, +IFN): 66 % UTC
IL-12 mRNA expression, % UTC (75 nM, −IFN): 114 % UTC
IL-12 mRNA expression, % UTC (150 nM, +IFN): 54 % UTC
IL-12 mRNA expression, % UTC (150 nM, −IFN): 109 % UTC
IL-12 mRNA expression, −IFN % UTC: 73 % UTC
IL-12 mRNA expression, +IFN % UTC: 129 % UTC
IL-12 mRNA expression, % UTC (300 nM, +IFN): 66 % UTC
IL-12 mRNA expression, % UTC (300 nM, −IFN): 101 % UTC
IL-12 mRNA expression, % UTC (600 nM, +IFN): 81 % UTC
IL-12 mRNA expression, % UTC (600 nM, −IFN): 128 % UTC

327940 (antisense eG*eA*eA*e[5mC]*eA*eG*eG*eT*eA*eG*eT*e[5mC]*eT*eG*eA*eA*e[5mC]*eA*e[5mC]*eT*eG*eG*eG) [compound 327940]
IL-12 mRNA expression, −IFN % UTC: 228 % UTC
IL-12 mRNA expression, +IFN % UTC: 107 % UTC

327959 (antisense e[5mC]*eA*eG*e[5mC]*e[5mC]*eG*e[5mC]*eT*eG*eT*e[5mC]*eA*e[5mC]*eA*e[5mC]*eG*e[5mC]*eA*e[5mC]*eA*eG) [compound 327959]
IL-12 mRNA expression, −IFN % UTC: 183 % UTC
IL-12 mRNA expression, +IFN % UTC: 20 % UTC

327958 (antisense e[5mC]*e[5mC]*eG*eG*e[5mC]*eT*eG*e[5mC]*eA*eA*e[5mC]*eA*e[5mC]*eA*eA*eG*eA*e[5mC]*eA*e[5mC]*eG*eA) [compound 327958]
IL-12 mRNA expression, −IFN % UTC: 188 % UTC
IL-12 mRNA expression, +IFN % UTC: 60 % UTC

327936 (antisense eA*e[5mC]*eA*eG*e[5mC]*eT*eG*eG*eT*eT*eG*eA*eA*eG*eG*eG*eG*eA*e[5mC]*e[5mC]*eA*eA) [compound 327936]
IL-12 mRNA expression, −IFN % UTC: 221 % UTC
IL-12 mRNA expression, +IFN % UTC: 55 % UTC

327963 (antisense eA*eA*e[5mC]*e[5mC]*eT*eA*eT*e[5mC]*e[5mC]*eT*eG*eA*eA*eT*eT*eA*e[5mC]*eT*eT*eG*eA*eA) [compound 327963]
IL-12 mRNA expression, −IFN % UTC: 224 % UTC
IL-12 mRNA expression, +IFN % UTC: 23 % UTC

327935 (antisense e[5mC]*eT*eA*e[5mC]*e[5mC]*eT*eG*e[5mC]*eA*e[5mC]*eT*eA*eT*eA*eA*eG*e[5mC]*eA*e[5mC]*eT*eT*eT*eA) [compound 327935]
IL-12 mRNA expression, −IFN % UTC: 254 % UTC
IL-12 mRNA expression, +IFN % UTC: 24 % UTC

327924 (antisense eG*e[5mC]*eA*eA*eG*e[5mC]*e[5mC]*e[5mC]*eA*eG*eA*e[5mC]*e[5mC]*eG*e[5mC]*eA*eA*eA*eA*eA*eG) [compound 327924]
IL-12 mRNA expression, −IFN % UTC: 171 % UTC
IL-12 mRNA expression, +IFN % UTC: 88 % UTC

327971 (antisense eG*eG*eA*eA*eA*eT*e[5mC]*e[5mC]*e[5mC]*eT*eG*eG*e[5mC]*eA*eA*eT*eG*eT*eG*eA*eT) [compound 327971]
IL-12 mRNA expression, −IFN % UTC: 146 % UTC
IL-12 mRNA expression, +IFN % UTC: 17 % UTC

327961 (antisense eG*eG*eG*eG*eT*eA*eT*eT*eT*eG*eA*e[5mC]*eA*eA*eA*e[5mC]*eT*eG*eA*e[5mC]*eA) [compound 327961]
IL-12 mRNA expression, −IFN % UTC: 203 % UTC
IL-12 mRNA expression, +IFN % UTC: 10 % UTC

327945 (antisense e[5mC]*eT*eG*eT*eT*e[5mC]*e[5mC]*eT*eG*e[5mC]*eT*eG*eA*eA*e[5mC]*eT*eG*eA*eG*e[5mC]*e[5mC]*eA) [compound 327945]
IL-12 mRNA expression, −IFN % UTC: 202 % UTC
IL-12 mRNA expression, +IFN % UTC: 68 % UTC
